# From article PMC9468151, “Identification of a binding site on soluble RANKL that can be targeted to inhibit soluble RANK-RANKL interactions and treat osteoporosis” (Nature Communications, 2022)
# Several values for one entry are separate records, joined by “and”; a condition that tells them apart may be missing. Equal entries are not always repeated. Entries after “also recorded” stand apart in the source; their conditions may differ.
# How the values were obtained:
# [1] = tested on: sRANKL induced osteoclast differentiation; experiment: In vitro anti-osteoclastogenesis activity determination (TRAP staining); format: cell-based, mouse; details: BMMs, M-CSF + 100 ng/mL sRANKL, 5 days, TRAP staining
# Experimental: Mouse osteoclasts were cultured according to the previously reported protocols. BMMs were plated in 96-well plates at a density of 6 × 10^3 cells/well with complete medium containing 10 ng/mL M-CSF. The following day, cells were then stimulated with 100 ng/mL sRANKL in the presence or absence of compounds with different concentrations every 2 days until osteoclasts formed. In order to calculate IC50, we set 9 concentrations for each compound and untreated and non-sRANKL unstimulating group as controls, each with triplicated repeated wells. After 5 days, cells were fixed with 4% paraformaldehyde and then applied TRAP-staining to identify osteoclasts by using the TRAP-staining kit. Osteoclasts number (OC No.) in each well was counted and the percentage of inhibition ratio was calculated as follows:1 OCinhibitoryratio%=100−OCNo.treated−OCNo.unstimulating/OCNo.untreated−OCNo.unstimulating×100%
# The dosages and their correspondent osteoclastogenesis inhibitory activity curve and IC50 value were conducted by using Nonlinear regression (curve fit) analytic procedure in GraphPad Prism 8. Photographs of individual wells were taken using Leica microscope.
# [2] = tested on: T lymphocyte; experiment: T lymphocyte cell proliferation assay (CFSE, CD4+/CD8+ flow cytometry); format: cell-based, human
# Experimental: T lymphocyte cell proliferation assay was performed according to a reported method[58] with some modification. Briefly, 5 × 10^6 cells /mL cells were stained 2.5 μM CFSE (Tonbo Biosciences) and incubated at 37 °C for 12 min. Then washed and discarded the supernatant and adjusted the CFSE stained cell to 1.75 × 10^6 cells /mL. Cells were diluted in 1640 completed medium containing 5 μg/mL anti-CD3 antibody (Tonbo Biosciences) to 3 × 10^5 cells/mL and seed in a 96-well plate or 24-well plate that pre-packaged 0.4 μg/well anti-CD28 antibody and 1.6 μg anti-CD28 antibody (24-well) (Tonbo Biosciences). Cells were then cultured for 3 days, 9 days or 12 days. Subsequently, the proportion of CD4^+ and CD8^+ cells was determined by flow cytometry (Beckman Coulter, FC500) according to manufacturer’s instruction of PE-Cyanine7 anti-Human CD8a and PE anti-Human CD4 antibodies (Tonbo Biosciences). Data analyzing was performed by using CXP software (Beckman Coulter, Supplementary Fig. 8).
# [3] = Cancer donor 1, 3 day, Denosumab 2
# [4] = Cancer donor 1, 3 day, Denosumab 10
# [5] = Cancer donor 1, 3 day, Denosumab 50
# [6] = Cancer donor 1, 3 day, Denosumab 100
# [7] = Healthy donor 1, 3 day, Denosumab 2
# [8] = Healthy donor 1, 3 day, Denosumab 10
# [9] = Healthy donor 1, 3 day, Denosumab 50
# [10] = Healthy donor 1, 3 day, Denosumab 100
# [11] = Healthy donor 1, 12 day, Denosumab 2
# [12] = Healthy donor 1, 12 day, Denosumab 10
# [13] = Healthy donor 1, 12 day, Denosumab 50
# [14] = Healthy donor 1, 12 day, Denosumab 100
# [15] = Healthy donor 2, 9 day, Denosumab 2
# [16] = Healthy donor 2, 9 day, Denosumab 10
# [17] = Healthy donor 2, 9 day, Denosumab 50
# [18] = Healthy donor 2, 9 day, Denosumab 100
# [19] = cancer patient donors 1, 3 day, Denosumab conc. 2
# [20] = cancer patient donors 1, 3 day, Denosumab conc. 10
# [21] = cancer patient donors 1, 3 day, Denosumab conc. 50
# [22] = cancer patient donors 1, 3 day, Denosumab conc. 100
# [23] = healthy donors 2, 9 day, Denosumab conc. 2
# [24] = healthy donors 2, 9 day, Denosumab conc. 10
# [25] = healthy donors 2, 9 day, Denosumab conc. 50
# [26] = healthy donors 2, 9 day, Denosumab conc. 100
molecule,measurement,setting,value
CCOC(=O)c1sc(NC(=O)C(=NNc2cc(C(=O)O)ccc2C(=O)O)C(C)=O)nc1C [S3-04],OC IC50 (anti-osteoclastogenesis activity),[1],Inactive; also recorded: lose osetoclastogenesis inhibitory activities
Denosumab: human monoclonal antibody targeting RANKL [reference compound],CD8+ cells in total cells (%),[2]; [3],12.95% and 18.88% and 19.88%
same,CD8+cells in CFSE-cells (%),[2]; [3],47.83% and 52.36% and 55.86%
same,CFSE- cells in total cells (%),[2]; [3],7.68% and 12.7% and 13.49%
same,CD8+ cells in total cells (%),[2]; [4],19.52% and 20.76% and 18.73% and 17.85%
same,CD8+cells in CFSE-cells (%),[2]; [4],58.3% and 60.56% and 50.89% and 60.05%
same,CFSE- cells in total cells (%),[2]; [4],14.67% and 15.58% and 13.42% and 13.19%
same,CD8+ cells in total cells (%),[2]; [5],26.97% and 21.55% and 18.02% and 16.53%
same,CD8+cells in CFSE-cells (%),[2]; [5],60.83% and 60.63% and 65.78% and 55.26%
same,CFSE- cells in total cells (%),[2]; [5],18.07% and 17.65% and 14.37% and 12.07%
same,CD8+ cells in total cells (%),[2]; [6],18.07% and 12.62% and 9.75% and 19.7%
same,CD8+cells in CFSE-cells (%),[2]; [6],58.14% and 64.44% and 57.46% and 66.87%
same,CFSE- cells in total cells (%),[2]; [6],13.67% and 8.82% and 5.94% and 14.04%
same,CD4+cells in total cells (%),[2]; [7],69.69% and 70.06% and 70.95% and 70.86%
same,CD8+ cells in total cells (%),[2]; [7],18.8% and 18.88% and 18.25% and 19.29%
same,CD8+cells in CFSE-cells (%),[2]; [7],26.34% and 25.38% and 32.57% and 36.89%
same,CFSE- cells in total cells (%),[2]; [7],26.84% and 28.54% and 29.29% and 24.77%
same,CD4+cells in total cells (%),[2]; [8],65.55% and 67.08% and 69.8% and 70.72%
same,CD8+ cells in total cells (%),[2]; [8],12.83% and 18.37% and 19.41% and 19.55%
same,CD8+cells in CFSE-cells (%),[2]; [8],30.74% and 26.84% and 36.74% and 30.32%
same,CFSE- cells in total cells (%),[2]; [8],20.59% and 18.28% and 26.59% and 31.48%
same,CD4+cells in total cells (%),[2]; [9],67.05% and 68.05% and 69.94%
same,CD8+ cells in total cells (%),[2]; [9],11.73% and 19.23% and 18.46% and 17.76%
same,CD8+cells in CFSE-cells (%),[2]; [9],24.41% and 28.83% and 32.28% and 24%
same,CFSE- cells in total cells (%),[2]; [9],15.36% and 19.21% and 18.01% and 22.17%
same,CD4+cells in total cells (%),[2]; [10],70.71% and 71.03% and 67.42% and 69.45%
same,CD8+ cells in total cells (%),[2]; [10],18.51% and 19.03% and 18%
same,CD8+cells in CFSE-cells (%),[2]; [10],34.99% and 31.86% and 30.15% and 27.25%
same,CFSE- cells in total cells (%),[2]; [10],23.52% and 25.01% and 20.72% and 24.32%
same,CD4+cells in total cells (%),[2]; [11],26.49% and 25.92% and 26.52% and 28.25%
same,CD8+ cells in total cells (%),[2]; [11],16.3% and 19.12% and 15.44% and 15.28%
same,CD8+cells in CFSE-cells (%),[2]; [11],73.19% and 72% and 71.55% and 68.56%
same,CFSE- cells in total cells (%),[2]; [11],14.97% and 17.18% and 14.07% and 13.53%
same,CD4+cells in total cells (%),[2]; [12],25.95% and 25.52% and 26.76% and 24.64%
same,CD8+ cells in total cells (%),[2]; [12],15.64% and 17.84% and 16.84% and 18.91%
same,CD8+cells in CFSE-cells (%),[2]; [12],74.4% and 67.54% and 67.82% and 72.96%
same,CFSE- cells in total cells (%),[2]; [12],15.13% and 15.31% and 14.05% and 17.18%
same,CD4+cells in total cells (%),[2]; [13],24.55% and 27.22% and 26.53% and 28.64%
same,CD8+ cells in total cells (%),[2]; [13],20.42% and 18.55% and 17.94% and 15.51%
same,CD8+cells in CFSE-cells (%),[2]; [13],76.93% and 74.3% and 73% and 74.26%
same,CFSE- cells in total cells (%),[2]; [13],19.56% and 16.94% and 16.16% and 14.84%
same,CD4+cells in total cells (%),[2]; [14],25.87% and 24.55% and 27.13% and 25.36%
same,CD8+ cells in total cells (%),[2]; [14],17.35% and 16.6% and 14.41% and 19%
same,CD8+cells in CFSE-cells (%),[2]; [14],75.89% and 76.07% and 78.18% and 58.5%
same,CFSE- cells in total cells (%),[2]; [14],16.6% and 18.55% and 14.85% and 14.03%
same,CD8+ cells in total cells (%),[2]; [15],62.1% and 50.03% and 44.09%
same,CD8+cells in CFSE-cells (%),[2]; [15],46.7% and 62.97% and 61.41%
same,CFSE- cells in total cells (%),[2]; [15],29.5% and 51.59% and 42.27%
same,CD8+cells in CFSE-cells (%),[2]; [16],52.77% and 43.74% and 55.57%
same,CFSE- cells in total cells (%),[2]; [16],41.17% and 28.01% and 37.92%
same,CD8+ cells in total cells (%),[2]; [17],20.69% and 38.29% and 38.09%
same,CD8+cells in CFSE-cells (%),[2]; [17],53.31% and 54.69% and 48.69%
same,CFSE- cells in total cells (%),[2]; [17],29.61% and 31.67% and 28.7%
same,CD8+ cells in total cells (%),[2]; [18],58.4% and 50.02% and 56.13%
same,CD8+cells in CFSE-cells (%),[2]; [18],75.13% and 70.69% and 68.35%
same,CFSE- cells in total cells (%),[2]; [18],59.44% and 46.67% and 44.15%
same,CD4+cells in total cells (%),[2]; [19],2.77% and 5.83% and 5.1%
same,CFSE-CD4+cells in CFSE-cells (%),[2]; [19],6.78% and 7.64% and 7.28%
same,CD4+cells in total cells (%),[2]; [20],4.94% and 4.86% and 1.84% and 3.11%
same,CFSE-CD4+cells in CFSE-cells (%),[2]; [20],6.34% and 3.24% and 8% and 8.92%
same,CD4+cells in total cells (%),[2]; [21],1.87% and 6.24% and 6.17% and 6.5%
same,CFSE-CD4+cells in CFSE-cells (%),[2]; [21],4% and 0.79% and 1.56% and 4.58%
same,CD4+cells in total cells (%),[2]; [22],9.55% and 7.15% and 9.97% and 6.77%
same,CFSE-CD4+cells in CFSE-cells (%),[2]; [22],4% and 0% and 0.9%
same,CD4+CFSE− cell after treatment,"[2]; cancer patient, Fig. 7c, control 5.32 ± 0.76%",1.33 ± 2.31%
same,total T cells isolated from cancer patient after treatment,"[2]; cancer patient, Fig. 7c, control 14.51 ± 3.71%",3.88 ± 1.77%
same,CD4+cells in total cells (%),"[2]; healthy donors 1, 3 day, Denosumab conc. 2",72.37% and 73.3% and 66.26% and 61.44%
same,CD4+cells in total cells (%),"[2]; healthy donors 1, 3 day, Denosumab conc. 10",65.16% and 71.53% and 62.16% and 68.6%
same,CD4+cells in total cells (%),"[2]; healthy donors 1, 3 day, Denosumab conc. 50",73.23% and 69.38% and 66.17% and 74.19%
same,CD4+cells in total cells (%),"[2]; healthy donors 1, 3 day, Denosumab conc. 100",64% and 66.67% and 68.46% and 71.67%
same,CFSE-CD4+cells in CFSE-cells (%),"[2]; healthy donors 1, 12 day, Denosumab conc. 2",9.68% and 10.89% and 9.04% and 9.57%
same,CFSE-CD4+cells in CFSE-cells (%),"[2]; healthy donors 1, 12 day, Denosumab conc. 10",10.52% and 10.85% and 8.44% and 10.78%
same,CFSE-CD4+cells in CFSE-cells (%),"[2]; healthy donors 1, 12 day, Denosumab conc. 50",8.71% and 10.48% and 9.97% and 9.81%
same,CFSE-CD4+cells in CFSE-cells (%),"[2]; healthy donors 1, 12 day, Denosumab conc. 100",9.75% and 11.53% and 10.58%
same,CD4+cells in total cells (%),[2]; [23],17% and 17.01% and 14.7%
same,CFSE-CD4+cells in CFSE-cells (%),[2]; [23],42.1% and 26.91% and 24.13%
same,CD4+cells in total cells (%),[2]; [24],13.52% and 17.3% and 15.5%
same,CFSE-CD4+cells in CFSE-cells (%),[2]; [24],24.29% and 47.85% and 28.82%
same,CD4+cells in total cells (%),[2]; [25],12.4% and 14.63% and 15.19%
same,CFSE-CD4+cells in CFSE-cells (%),[2]; [25],19.21% and 28.79% and 29.22%
same,CD4+cells in total cells (%),[2]; [26],14.9% and 10.87% and 12.57%
same,CFSE-CD4+cells in CFSE-cells (%),[2]; [26],20.36% and 16.35% and 22.15%
same,total CD4+ and CD4+CFSE− T cell,"[2]; human 2, 9 days, 100 μg/mL",dropped by nearly half
same,lymphocyte proliferation,"[2]; human lymphocytes, in words",notably inhibits lymphocyte proliferation at high concentration
